The subject of data set [1] is A2780 ovarian cancer cells. Kind of data set: IC50 of complex 2 on co-administration with formate. As to conditions: A2780, formate 0 mM. It counts as cell-based, human. The protocol:
The antiproliferative activity towards A2780 ovarian cancer cells of complex 2 when co-administered with 2 mM sodium formate was determined. These experiments were performed as described above, using a fixed concentration of formate and variable concentrations of the Ru complex. The SRB assay was used to determine cell viability. IC50 values were determined as duplicates of triplicates in two independent sets of experiments and their s.d. were calculated.
Supplementary Table 8: Antiproliferative activity of complex 2 in A2780 ovarian cancer cells when co-administered with different concentrations of sodium formate (0, 0.5, 1 and 2 mM) and amount of Ru accumulated by the cells. All the experiments were performed as duplicates of triplicates in independent experiments and the error bars were calculated as the standard deviation from the mean.
Formate concentration (mM)

Data set [2] concerns A2780 ovarian cancer cells. The data set can be described thus: Ruthenium accumulation in cancer cells (ICP-MS). It counts as cell-based, human. The protocol: Briefly, 1.5 × 10^6 cells per well were seeded on a six-well plate. […] After this time, cells were washed, treated with trypsin-EDTA, counted and cell pellets were collected. Each pellet was digested overnight in concentrated nitric acid (73%) at 353 K; the resulting solutions were diluted using double-distilled water to give a final concentration of 5% HNO3 and the amount of Ru taken up by the cells was determined by ICP–MS. […]
Supplementary Table 3: Antiproliferative activity of complexes 1-8 in A2780 ovarian cancer cells and their cellular accumulation (expressed as ng Ru per million cells).
The latter experiments were carried out using equipotent concentrations of the […]
experiments were performed as duplicates of triplicates in independent experiments and the error bars were calculated as the standard deviation from the mean. […]

Data set [3] relates to 9-ethylguanine. The data set can be described thus: Binding to model nucleobase 9-ethylguanine by 1H NMR. Particulars: D2O, pH* 7.2 ± 0.1, 310 K. The protocol: Supplementary Table 4: Binding constants for formation of 9-EtG adducts of complexes 1-4 determined by 1H NMR. The experiments were performed in D2O, pH* 7.2 ± 0.1 and 310 K. Equilibrium was reached by the time the first 1H NMR spectrum was recorded (< 10 min). […]
DNA is believed to be the main target for [(bip)Ru(en)Cl]+ (8). Due to the structural similarity of the complexes 1-5 with complex 8, their binding to DNA was […]
Interaction with nucleobases
Initially, model nucleobases, 9-ethylguanine and 9-methyladenine were reacted with complexes 1-4 in D2O, 310 K and pH* 7.2 ± 0.1. The binding of the complexes to 9-EtG or 9-MeA was monitored by 1H-NMR spectroscopy. Peaks for the 9-EtG adducts were observed by the time the first spectrum was recorded (< 5 min after mixing), […]
equilibrium was reached rapidly. The binding constants for formation of 9-EtG adducts determined by NMR were between 60 and 106 mM-1 (Supplementary Table 4). These values are in the same range as that from the ethylenediamine complex [(bip)Ru(en)Cl]+ (K9-EtG= 60.3 mM-1),2 which also binds strongly to DNA.3, 4 The high resolution mass spectrum confirmed the formation of [(η6-arene)Ru(XEn)(9-EtG)]+ (Supplementary Table 5). The interaction of complexes 1-4 with 9-MeA was also investigated, but no reaction was detected by 1H-NMR.
It is well established that N7 of guanine is the preferred nucleotide binding site for many transition metals ions. 2-8 Furthermore, strong and selective binding to N7 of 9-EtG, has been observed for [(η6-arene)Ru(en)Cl]+.3, 4 A pH* titration of […]

The test system of data set [4] is CT-DNA. Kind of data set: Thermal stability (melting temperature) of CT-DNA by UV-Vis. It counts as binding, calf. As to conditions: for Tm: CT-DNA, 1:3 complex:base pairs, 2 mM cacodylate pH 7.4, 2 h 310 K; for ΔTm: versus free DNA. The protocol:
Supplementary Table 6: Melting temperature (Tm) of CT-DNA in the presence of 8 or complex 2 (ratio 1:3, complex: base pairs-DNA). The reactions were carried out in cacodylate buffer (2 mM, pH 7.4), and samples incubated for 2 h at 310 K. […]
a variation in melting temperature between free DNA and DNA in the presence of the corresponding complex. * […] from free DNA using a T-test analysis. ** p < 0.01 from free DNA using a T-test analysis […]
Thermal stability of CT-DNA
The melting temperature of CT-DNA in the presence and absence of complex 2 [(p-cym)Ru(TsEn)Cl] was determined by UV-Vis spectroscopy (Supplementary Table 6). Higher melting temperatures indicate increased stabilization of the DNA, which is the effect produced by DNA-intercalators and often by direct metal coordination to […]
the nucleobases.11 Destabilization of DNA can result in a decrease of the melting […]
In the presence of complex 8, the melting temperature of CT-DNA increased In agreement with the literature, 12 by 14 K, in 2 mM NaCl, 2 mM cacodylate buffer.
This increase is due to Ru binding to DNA as well as intercalation. 12 However, upon increasing the chloride concentration by ca. 10x (20 mM NaCl) the melting temperature of CT-DNA in the presence of complex 8, increased only by 7 K. This effect has previously been reported and it is attributed to the partial inhibition of hydrolysis, and, therefore, inhibition of coordination to DNA. 12, 13
Experiments performed in the presence of complex 2, in 2 mM cacodylate buffer and […]
NaCl, no decrease of the melting temperature was observed. […]

In data set [5] the test system is A2780 cells. Kind of data set: Induction of apoptosis (Annexin V-FITC/PI flow cytometry). It counts as cell-based, human. Particulars: A2780, complex 2 and 2 mM sodium formate, 24 h. The protocol: Flow cytometry analysis of apoptosis in A2780 cells caused by exposure to complex 2 and sodium formate were carried out using the Annexin V-FITC Apoptosis Detection Kit (Sigma Aldrich) according to the manufacturer’s instructions. […] Cells were harvested using trypsin and stained using PI/Annexin V-FITC. After staining, cell pellets were analysed in a Becton Dickinson FACScan Flow Cytometer. For positive-apoptosis controls, A2780 cells were exposed for 2 h to staurosporine (1 μg ml^−1). Cells for apoptosis studies were used with no previous fixing procedure as to avoid nonspecific binding of the annexin V-FITC conjugate.

SMILES strings stand for the structures.

For the compound `Cc1ccc(C(C)C)cc1.Cc1ccc(S(=O)(=O)[N-]CCN)cc1.[Cl-].[Ru+2]` [Complex 2, [(p-cym)Ru(TsEn)Cl]], in data set [1], the 50% inhibitory concentration (IC50) (commonly the point on the concentration scale where inhibition reaches its midpoint) was 13.6 ± 0.6 µM. The “Cell Ru” value in data set [2] (A2780, 1/3 x IC50, 24 h drug exposure, no recovery time) is listed as 0.15 ± 0.04 ng x 106 cells; in data set [2] (A2780, complex 2, formate 0 mM) it was 0.15 ± 0.03 ng x 106 cells; in data set [2] (A2780, complex 2, formate 0.5 mM) it was 0.145 ± 0.009 ng x 106 cells; in data set [2] (A2780, complex 2, formate 1 mM) it was 0.129 ± 0.005 ng x 106 cells; in data set [2] (A2780, complex 2, formate 2 mM) it was 0.13 ± 0.02 ng x 106 cells. In addition, in data set [2] (A2780, 24 h, 1/3 x IC50), the Cell accum. worked out at 0.15 ng Ru/10^6 cells. Also, the “dependence of cellular accumulation of ruthenium on amount of formate added” value in data set [2] (A2780, complex 2 4.5 μM) is recorded as “no significant dependence”. Also, in data set [3], the “Binding constant for formation of 9-EtG adducts” value was found to be 104.9 ± 3.9 mM⁻¹. Further, in data set [4] (2 mM cacodylate buffer and 2 mM NaCl), the “decrease in the melting temperature of CT-DNA” value was -269 °C. Further, the results for the Tm in data set [4] (2 mM NaCl) and in data set [4] (20 mM NaCl) were 47.2 ± 1.6 °C and 54.4 ± 0.7 °C, respectively. Also, the ΔTm is -2.4 in data set [4] (2 mM NaCl) and -4.9 in data set [4] (20 mM NaCl). The induction of apoptosis entry in data set [5] is recorded as “no population of cells in either of these two stages of apoptosis was detected”.
